Reference: patent US8415469B2, “Compounds and methods for kinase modulation, and indications therefor” (Plexxikon Inc., priority 2005, dated 2013)

How the values were obtained:
Assay type in all cases: biochemical
FGFR1 = target: T1, FGFR1 (Homo sapiens, UniProt P11362, C488A/C584S); assay: AlphaScreen kinase assay, FGFR1; conditions: read-out: IC50, activity toward kinase FGFR
T1 construct: P1351.pET N6 BI-PTP FGFR A458-E765-X C488A, C584S; made in house; host or cells: E. coli (PTP1B co-expressed)

Ret = target: T2, Ret (Homo sapiens, UniProt P07949); assay: AlphaScreen kinase assay, Ret; conditions: read-out: IC50, activity toward kinase Ret
T2 construct: P1378.pET-SF BI-PTP RET H661-R1012 HIS; made in house
T2 sequence (P07949 with tags, fused parts or gaps): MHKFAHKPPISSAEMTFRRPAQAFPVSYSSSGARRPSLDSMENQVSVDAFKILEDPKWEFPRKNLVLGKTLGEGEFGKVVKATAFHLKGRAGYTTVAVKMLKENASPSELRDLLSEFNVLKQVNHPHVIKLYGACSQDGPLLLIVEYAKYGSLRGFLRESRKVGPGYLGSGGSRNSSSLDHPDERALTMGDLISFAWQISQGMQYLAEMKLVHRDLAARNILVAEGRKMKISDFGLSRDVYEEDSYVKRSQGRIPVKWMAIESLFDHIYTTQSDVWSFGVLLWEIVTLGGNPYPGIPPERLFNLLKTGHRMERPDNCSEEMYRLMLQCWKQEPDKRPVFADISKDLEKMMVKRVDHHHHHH

Btk = target: T3, Btk (Homo sapiens, UniProt Q06187); assay: Z'-Lyte FRET kinase assay (Invitrogen), Btk; conditions: read-out: IC50, activity toward kinase Btk
T3 construct: purchased Invitrogen (assay run by Invitrogen)

Yes = target: T4, Yes (Homo sapiens, UniProt P07947); assay: Z'-Lyte FRET kinase assay (Invitrogen), Yes; conditions: read-out: IC50, activity toward kinase Yes
T4 construct: purchased Invitrogen (Carlsbad, Calif.), screening service
Summary of the method: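 Z′-Lyte FRET assay: kinase phosphorylates 2 μM peptide substrate at 10 μM ATP in 50 mM HEPES pH 7.5, 50 mM MgCl2, 5 mM EGTA, 0.05% BRIJ-35, 1% DMSO, 1 h at room temperature. Protease development 1 h; coumarin/fluorescein emission ratio gives phosphorylation extent over compound concentration curves.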

B-Raf V600E = target: T5, B-Raf V600E (Homo sapiens, UniProt P15056, V600E); assay: AlphaScreen kinase assay, B-Raf V600E; conditions: read-out: IC50, activity toward kinase B-Raf V600E
T5 construct: P4254. pFastBacBD-CDC37 BRAF D437-K722-X, V600E; His6 with pFastBac HT leader (TEV site) (N); made in house; host or cells: Sf9 (baculovirus; chaperone CDC37 co-expressed)

Kdr = target: T6, Kdr (Homo sapiens, UniProt P35968); assay: Z'-Lyte FRET kinase assay (Invitrogen), Kdr; conditions: read-out: IC50, activity toward kinase Kdr
T6 construct: purchased Invitrogen (assay run by Invitrogen)
From the text: For example, direct radiometric, indirect FRET or AlphaScreen assays may be used to assess the level of phosphorylation of a substrate in the presence of test compounds in order to determine the inhibitory affect of the compound on the kinase. […] For these assays, compounds of the invention were screened by Invitrogen using Z′-Lyte™ kinase assay.
Briefly, the Invitrogen kinase assay involves use of a specific peptide substrate optimized for each kinase, containing a fluorophore at each end that make up the FRET pair. The peptide sensitivity to proteolytic cleavage depends on phosphorylation of the peptide. Non-phosphorylated peptide is cleaved by a protease while peptide phosphorylated by the kinase is not cleaved. Cleavage of the peptide disrupts the FRET between the donor (coumarin) and acceptor (fluorescein) fluorophores, resulting in an increase in the ratio of donor emission to acceptor emission. The emission ratio of coumarin to fluorescein is used to assess the reaction progress. […] Thus, the assay involves a kinase reaction in the presence of varying concentrations of a given compound, a development reaction with site specific protease, and detection of the fluorescent emission ratio of coumarin and fluorscein. […] Reaction conditions for each kinase are determined to provide optimal reaction times, incubation temperature, kinase and ATP concentrations. Test samples are made up in 1× kinase buffer (50 mM HEPES pH 7.5, 50 mM MgCl2, 5 mM EGTA, 0.05% BRIJ-35) and compound at desired concentration prepared in DMSO such that the final DMSO is 1%. […] All kinase except for MAP2K1 were at 10 μM ATP in the kinase reaction, while MAP2K1 was at 100 μM. Samples are mixed and the kinase reaction is incubated 1 hour at room temperature, after which 5 μl of development solution is added and mixed. After incubation for another 1 hour at room temperature, 5 μl of stop reagent is added to each sample and mixed. The fluorescence signals are measured to determine the emission ratio.

B-Raf = target: T7, B-Raf (Homo sapiens, UniProt P15056); assay: AlphaScreen kinase assay, B-Raf; conditions: read-out: IC50, activity toward kinase B-Raf
T7 construct: purchased Upstate Biotechnology

Measured: IC50

T4 sequence (P07947 whole entry): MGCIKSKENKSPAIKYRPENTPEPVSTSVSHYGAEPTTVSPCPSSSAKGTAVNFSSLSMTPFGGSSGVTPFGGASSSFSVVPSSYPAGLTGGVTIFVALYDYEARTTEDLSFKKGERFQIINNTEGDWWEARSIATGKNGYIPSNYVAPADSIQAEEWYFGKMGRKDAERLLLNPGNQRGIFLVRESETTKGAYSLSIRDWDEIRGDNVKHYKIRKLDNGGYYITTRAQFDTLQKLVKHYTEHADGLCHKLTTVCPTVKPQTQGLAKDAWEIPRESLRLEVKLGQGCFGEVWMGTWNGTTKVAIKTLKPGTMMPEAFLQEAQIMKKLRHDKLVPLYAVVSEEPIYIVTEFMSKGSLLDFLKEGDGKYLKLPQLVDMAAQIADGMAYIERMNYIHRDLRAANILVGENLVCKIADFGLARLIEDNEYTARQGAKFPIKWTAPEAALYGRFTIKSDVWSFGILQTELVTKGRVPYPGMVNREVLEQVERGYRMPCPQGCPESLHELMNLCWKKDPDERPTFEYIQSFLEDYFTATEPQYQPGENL
T6 sequence (P35968 20-1356): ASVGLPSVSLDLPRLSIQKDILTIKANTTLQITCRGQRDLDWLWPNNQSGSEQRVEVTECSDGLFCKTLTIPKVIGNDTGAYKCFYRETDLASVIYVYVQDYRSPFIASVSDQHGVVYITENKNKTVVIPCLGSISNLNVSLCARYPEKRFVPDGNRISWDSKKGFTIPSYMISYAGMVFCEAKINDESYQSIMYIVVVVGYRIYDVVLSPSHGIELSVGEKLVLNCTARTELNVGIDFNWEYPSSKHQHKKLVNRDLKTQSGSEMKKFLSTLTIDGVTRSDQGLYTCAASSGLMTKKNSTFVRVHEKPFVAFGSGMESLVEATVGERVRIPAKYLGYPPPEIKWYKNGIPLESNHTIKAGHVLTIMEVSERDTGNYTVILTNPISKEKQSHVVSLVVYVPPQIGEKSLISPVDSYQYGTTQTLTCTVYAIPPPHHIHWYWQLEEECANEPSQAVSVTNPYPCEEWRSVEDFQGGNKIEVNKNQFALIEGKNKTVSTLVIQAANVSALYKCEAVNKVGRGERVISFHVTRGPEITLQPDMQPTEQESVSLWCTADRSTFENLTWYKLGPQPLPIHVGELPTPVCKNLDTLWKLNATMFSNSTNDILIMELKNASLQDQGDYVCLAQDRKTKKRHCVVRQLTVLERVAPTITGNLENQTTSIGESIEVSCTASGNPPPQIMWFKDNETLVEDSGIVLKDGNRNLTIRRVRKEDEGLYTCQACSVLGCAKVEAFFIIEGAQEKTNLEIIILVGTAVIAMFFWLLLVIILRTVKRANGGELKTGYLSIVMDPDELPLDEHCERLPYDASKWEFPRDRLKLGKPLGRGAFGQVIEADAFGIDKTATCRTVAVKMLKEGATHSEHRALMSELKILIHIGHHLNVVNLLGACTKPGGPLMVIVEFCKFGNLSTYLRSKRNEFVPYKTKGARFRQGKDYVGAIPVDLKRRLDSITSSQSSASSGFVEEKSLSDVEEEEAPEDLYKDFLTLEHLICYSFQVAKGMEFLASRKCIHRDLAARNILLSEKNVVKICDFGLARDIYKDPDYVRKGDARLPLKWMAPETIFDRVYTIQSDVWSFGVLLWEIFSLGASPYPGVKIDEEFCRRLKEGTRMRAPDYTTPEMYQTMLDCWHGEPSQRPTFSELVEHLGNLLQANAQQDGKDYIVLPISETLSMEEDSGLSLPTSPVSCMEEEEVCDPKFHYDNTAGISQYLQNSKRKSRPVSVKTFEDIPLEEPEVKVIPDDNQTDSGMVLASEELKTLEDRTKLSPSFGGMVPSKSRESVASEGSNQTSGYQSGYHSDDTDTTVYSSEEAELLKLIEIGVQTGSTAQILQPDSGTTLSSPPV
T5 sequence (P15056 with tags, fused parts or gaps V600E): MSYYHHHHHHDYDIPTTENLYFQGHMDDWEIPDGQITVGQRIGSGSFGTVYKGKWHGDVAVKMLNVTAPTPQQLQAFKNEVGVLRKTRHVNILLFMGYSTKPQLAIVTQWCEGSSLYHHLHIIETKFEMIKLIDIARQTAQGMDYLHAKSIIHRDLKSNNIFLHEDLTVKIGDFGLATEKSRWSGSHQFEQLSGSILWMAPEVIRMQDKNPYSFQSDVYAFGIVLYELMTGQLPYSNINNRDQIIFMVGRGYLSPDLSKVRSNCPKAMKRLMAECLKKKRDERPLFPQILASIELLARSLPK
T1 sequence (P11362 458-765 C488A/C584S): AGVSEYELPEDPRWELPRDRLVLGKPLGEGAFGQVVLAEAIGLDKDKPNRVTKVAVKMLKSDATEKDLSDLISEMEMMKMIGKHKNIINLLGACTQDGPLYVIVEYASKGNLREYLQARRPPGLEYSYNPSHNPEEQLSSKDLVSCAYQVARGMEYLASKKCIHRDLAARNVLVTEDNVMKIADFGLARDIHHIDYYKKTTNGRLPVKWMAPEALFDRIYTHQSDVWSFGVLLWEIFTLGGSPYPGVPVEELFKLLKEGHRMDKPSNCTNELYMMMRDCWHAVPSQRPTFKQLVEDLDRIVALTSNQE
T7 sequence (P15056 whole entry): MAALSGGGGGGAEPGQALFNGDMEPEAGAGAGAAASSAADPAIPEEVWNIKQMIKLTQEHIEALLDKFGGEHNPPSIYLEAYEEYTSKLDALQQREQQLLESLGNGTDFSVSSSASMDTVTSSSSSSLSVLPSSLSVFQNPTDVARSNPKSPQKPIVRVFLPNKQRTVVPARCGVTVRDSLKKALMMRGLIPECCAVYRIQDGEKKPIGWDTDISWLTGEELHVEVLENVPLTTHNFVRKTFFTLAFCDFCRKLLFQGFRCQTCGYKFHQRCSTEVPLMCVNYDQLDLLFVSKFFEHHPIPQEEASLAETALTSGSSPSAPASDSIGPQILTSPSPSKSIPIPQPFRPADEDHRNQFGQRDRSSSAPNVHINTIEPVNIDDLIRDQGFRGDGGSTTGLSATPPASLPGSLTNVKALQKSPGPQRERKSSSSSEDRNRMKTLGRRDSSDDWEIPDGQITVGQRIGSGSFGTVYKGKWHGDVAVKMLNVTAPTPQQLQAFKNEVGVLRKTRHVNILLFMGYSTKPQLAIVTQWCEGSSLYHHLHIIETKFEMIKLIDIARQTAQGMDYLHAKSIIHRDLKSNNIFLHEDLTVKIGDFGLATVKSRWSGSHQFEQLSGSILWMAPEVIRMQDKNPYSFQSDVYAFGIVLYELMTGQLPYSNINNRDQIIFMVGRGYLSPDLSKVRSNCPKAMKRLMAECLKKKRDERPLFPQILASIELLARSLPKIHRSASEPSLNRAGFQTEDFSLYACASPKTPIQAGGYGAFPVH
T3 sequence (Q06187 whole entry): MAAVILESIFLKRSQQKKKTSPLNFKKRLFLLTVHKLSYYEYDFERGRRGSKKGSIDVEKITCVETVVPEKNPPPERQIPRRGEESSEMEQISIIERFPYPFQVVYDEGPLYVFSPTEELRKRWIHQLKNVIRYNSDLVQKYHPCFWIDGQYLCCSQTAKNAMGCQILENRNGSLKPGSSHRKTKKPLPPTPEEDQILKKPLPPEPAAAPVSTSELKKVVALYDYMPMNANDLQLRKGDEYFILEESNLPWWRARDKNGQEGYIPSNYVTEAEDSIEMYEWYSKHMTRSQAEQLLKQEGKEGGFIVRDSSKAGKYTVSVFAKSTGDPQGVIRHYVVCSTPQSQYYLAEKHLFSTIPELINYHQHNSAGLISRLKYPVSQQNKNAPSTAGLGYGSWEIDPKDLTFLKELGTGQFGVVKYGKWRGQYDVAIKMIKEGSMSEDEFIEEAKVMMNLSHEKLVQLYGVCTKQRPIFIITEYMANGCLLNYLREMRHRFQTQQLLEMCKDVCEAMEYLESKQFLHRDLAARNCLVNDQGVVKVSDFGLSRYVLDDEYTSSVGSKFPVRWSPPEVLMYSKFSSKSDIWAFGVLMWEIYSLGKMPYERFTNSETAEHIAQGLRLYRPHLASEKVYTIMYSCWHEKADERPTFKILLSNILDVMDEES

O=C(c1cccc(O)c1)c1c[nH]c2nccc(Cl)c12 [Compound P-0012]
not listed: B-Raf
≤ 10 µM: all other assays above

CCCS(=O)(=O)Nc1ccc(F)c(C(=O)c2c[nH]c3ncc(-c4ccccc4)cc23)c1F [Compound P-0636, Propane-1-sulfonic acid [2,4-difluoro-3-(5-phenyl-1H-pyrrolo[2,3-b]pyridine-3-carbonyl)-phenyl]-amide]
not listed: Btk | Kdr
≤ 10 µM: all other assays above

Cc1ccccc1C(=O)c1c[nH]c2nccc(-c3cccc(NS(C)(=O)=O)c3)c12 [Compound P-0109]
≤ 10 µM: Ret | Btk | Yes | B-Raf V600E

O=C(c1cccc(O)c1F)c1c[nH]c2ncc(Br)cc12 [Compound P-0067, (5-bromo-1H-pyrrolo[2,3-b]pyridin-3-yl)-(2-fluoro-3-hydroxy-phenyl)-methanone]
not listed: Ret
≤ 10 µM: all other assays above

Nc1cccc(-c2ccnc3[nH]cc(C(=O)c4ccccc4F)c23)c1 [Compound P-0022]
not listed: FGFR1 | B-Raf
≤ 10 µM: all other assays above

Cc1ccc(F)cc1C(=O)c1c[nH]c2ncc(-c3cccc(N)c3)cc12 [Compound P-0040]
not listed: B-Raf
≤ 10 µM: all other assays above

CC(=O)Nc1cccc(-c2ccnc3[nH]cc(C(=O)c4ccccc4F)c23)c1 [Compound P-0070]
not listed: FGFR1 | B-Raf
≤ 10 µM: all other assays above

Oc1ccc(F)c(Cc2c[nH]c3ncc(Br)cc23)c1F [Compound P-0122, 3-(5-Bromo-1H-pyrrolo[2,3-b]pyridin-3-ylmethyl)-2,4-difluoro-phenol]
not listed: FGFR1 | Btk
≤ 10 µM: all other assays above

O=C(c1cccc(O)c1F)c1c[nH]c2ncc(-c3ccccc3)cc12 [Compound P-0036, (2-fluoro-3-hydroxy-phenyl)-(5-phenyl-1H-pyrrolo[2,3-b]pyridin-3-yl)-methanone]
not listed: Btk | Kdr
≤ 10 µM: all other assays above

O=C(O)/C=C/c1cccc(-c2cnc3[nH]cc(C(=O)c4ccccc4F)c3c2)c1 [Compound P-0033]
not listed: B-Raf
≤ 10 µM: all other assays above

CCCS(=O)(=O)Nc1ccc(F)c(C(=O)c2c[nH]c3ncccc23)c1F [Compound P-0007, Propane-1-sulfonic acid [2,4-difluoro-3-(1H-pyrrolo[2,3-b]pyridine-3-carbonyl)-phenyl]-amide]
not listed: Ret
≤ 10 µM: all other assays above

Cc1ccccc1C(=O)c1c[nH]c2nccc(-c3ccc(C(N)=O)cc3)c12 [Compound P-0017]
not listed: B-Raf
≤ 10 µM: all other assays above

Nc1cccc(-c2ccnc3[nH]cc(C(=O)c4cc(F)ccc4F)c23)c1 [Compound P-0046]
not listed: FGFR1 | B-Raf
≤ 10 µM: all other assays above

O=C(c1ccccc1F)c1c[nH]c2ncc(-c3ccsc3)cc12 [Compound P-0134]
not listed: B-Raf
≤ 10 µM: all other assays above

CS(=O)(=O)c1cccc(-c2ccnc3[nH]cc(C(=O)c4cc(F)ccc4F)c23)c1 [Compound P-0171]
not listed: Kdr
≤ 10 µM: all other assays above

O=C(c1cc(O)ccc1F)c1c[nH]c2ncc(Br)cc12 [Compound P-0068, (5-Bromo-1H-pyrrolo[2,3-b]pyridin-3-yl)-(2-fluoro-5-hydroxy-phenyl)-methanone]
not listed: Ret
≤ 10 µM: all other assays above

NC(=O)c1ccc(-c2ccnc3[nH]cc(C(=O)c4cc(F)ccc4F)c23)cc1 [Compound P-0013]
not listed: B-Raf
≤ 10 µM: all other assays above

Cc1ccc(F)cc1C(=O)c1c[nH]c2nccc(-c3cccc(NS(C)(=O)=O)c3)c12 [Compound P-0124]
≤ 10 µM: Ret | Yes | B-Raf V600E

Cc1ccccc1C(=O)c1c[nH]c2nccc(-c3cccc(N)c3)c12 [Compound P-0044]
not listed: FGFR1 | B-Raf
≤ 10 µM: all other assays above

OC(c1c(F)ccc(F)c1F)c1c[nH]c2ncc(-c3cccnc3)cc12 (stereo not shown) [Compound P-0101]
≤ 10 µM: FGFR1 | Ret | Yes | Kdr

CS(=O)(=O)c1cccc(-c2cnc3[nH]cc(C(O)c4c(F)ccc(F)c4F)c3c2)c1 (stereo not shown) [Compound P-0020]
not listed: B-Raf V600E | B-Raf
≤ 10 µM: all other assays above

O=C(c1cc(F)ccc1F)c1c[nH]c2nccc(-c3cccnc3)c12 [Compound P-0063]
not listed: FGFR1 | B-Raf
≤ 10 µM: all other assays above

Cc1ccc(S(=O)(=O)NCc2c[nH]c3nccc(-c4cccc(C#N)c4)c23)cc1 [Compound P-0072]
not listed: Kdr | B-Raf
≤ 10 µM: all other assays above

O=C(O)/C=C/c1cccc(-c2cnc3[nH]cc(C(=O)c4cc(O)ccc4F)c3c2)c1 [Compound P-0010]
not listed: Kdr
≤ 10 µM: all other assays above

O=C(c1cccc(O)c1)c1c[nH]c2ncc(-c3cccnc3)cc12 [Compound P-0048]
not listed: FGFR1 | B-Raf
≤ 10 µM: all other assays above

O=C(c1ccccc1F)c1c[nH]c2nccc(-c3ccsc3)c12 [Compound P-0051]
not listed: FGFR1 | B-Raf
≤ 10 µM: all other assays above

NC(=O)c1ccc(-c2ccnc3[nH]cc(C(=O)c4ccccc4F)c23)cc1 [Compound P-0014]
not listed: FGFR1 | B-Raf
≤ 10 µM: all other assays above

CN(C)S(=O)(=O)Nc1ccc(F)c(Cc2c[nH]c3ncc(-c4cccnc4)cc23)c1F [Compound P-0166]
not listed: Ret | Kdr
≤ 10 µM: all other assays above

Oc1cccc(Cc2c[nH]c3ncc(-c4ccsc4)cc23)c1 [Compound P-0056]
not listed: Btk
≤ 10 µM: all other assays above

Nc1ccnc2[nH]cc(C(=O)c3ccccc3)c12 [Compound P-0029]
not listed: B-Raf V600E | B-Raf
≤ 10 µM: all other assays above

NC(=O)c1cccc(-c2ccnc3[nH]cc(C(=O)c4cc(F)ccc4F)c23)c1 [Compound P-0049]
not listed: FGFR1 | B-Raf
≤ 10 µM: all other assays above

Oc1cc(O)cc(Cc2c[nH]c3ncc(-c4ccsc4)cc23)c1 [Compound P-0093]
not listed: Ret
≤ 10 µM: all other assays above

O=C(c1ccc(O)cc1Cl)c1c[nH]c2ncccc12 [Compound P-0021]
not listed: Ret
≤ 10 µM: all other assays above
